The term Ki denotes a measure of affinity in units of concentration, obtained from inhibition or displacement. For orientation: melting point means the temperature of the solid-liquid transition.

Experimental findings from US6642267B2, “Substituted 1,5-dihydropyrrol-2-one derivatives active as NMDA receptor antagonists for treatment of states of pain” (Gruenenthal GmbH, priority 1999, dated 2003) are described below.

The target of series [1] is T1, glycine-binding site of the NMDA receptor channel (Rattus norvegicus, UniProt P35439).
T1 construct: from tissue; host or cells: rat brain cortex and hippocampus membrane homogenate (male Wistar rats, Charles River)
The series is described as follows: Receptor binding study, displacement of (3H)-MDL 105.519 in rat brain membrane homogenates. Particulars: rat cortex and hippocampus membrane homogenate; (3H)-MDL 105.519 radioligand; Ki from IC50 by Cheng-Prusoff. As to the method: The studies for determination of the affinity of the substituted 1,5-dihydropyrrol-2-one derivatives of the general formula I for the glycine-binding site of the NMDA receptor channel were carried out on brain membrane homogenates (homogenate of the cortex and hippocampus area from the brain of male rats, Wistar strain, Charles River, WIGA GmbH, Sulzbach, Germany) by the method of Baron B. M. et al, J. Pharmacol. Exp. Ter., vol. 279, pp. 62-68 (1996).
Specifically, the cortex and hippocampus were exposed from freshly removed rat brains and homogenized in 5 mmol/l TRIS-acetate buffer, 0.32 mol/l sucrose pH 7.4 (10 ml/g fresh weight) with a Potter homogenizer (Braun, Melsungen, Germany, 10 plunger strokes at 500 revolutions per minute (rpm)), while cooling with ice, and the mixture was then centrifuged for 10 minutes at 1,000 g and 4° C. The first supernatant was collected and the sediment was homogenized again with 5 mmol/l TRIS-acetate buffer, 0.32 mol/l sucrose pH 7.4 (5 ml/g of original fresh weight of rat brain cortex and hippocampus) with the Potter homogenizer (10 plunger strokes at 500 rpm), while cooling with ice, and the mixture was centrifuged for 10 minutes at 1,000 g and 4° C. The resulting supernatant was combined with the supernatant from the first centrifugation and the mixture was centrifuged at 17,000 g for 20 minutes at 4° C. The supernatant after this centrifugation was discarded and the membrane sediment was taken up in 5 mmol/l TRIS-acetate buffer pH 8.0 (20 ml/g original fresh weight) and the mixture was homogenized with 10 plunger strokes at 500 rpm.
The membrane homogenate was then incubated for 1 hour at 4° C. and centrifuged for 30 minutes at 50,000 g and 4° C. The supernatant was discarded and the centrifuge tube with the membrane sediment was closed with Parafilm and frozen for 24 hours at −20° C. On the following day the membrane sediment was thawed and taken up in ice-cold 5 mmol/l TRIS-acetate buffer, 0.1% saponin (weight/volume) pH 7.0 (10 ml/g original fresh weight) and the mixture was homogenized with 10 plunger strokes at 500 rpm and then centrifuged for 20 minutes at 50,000 g and 4° C. The resulting supernatant was discarded and the sediment was taken up in a small volume of 5 mmol/l TRIS-acetate buffer pH 7.0 (approx. 2 ml/g original fresh weight) and the mixture was homogenized again with 10 plunger strokes at 500 rpm. After the protein content had been determined, the membrane homogenate was adjusted to a protein concentration of 10 mg protein/ml with 5 mmol/l TRIS-acetate buffer pH 7.0 and frozen in aliquots until the analysis was carried out.
For the receptor binding test, aliquots were thawed, diluted 1:10 with 5 mmol/l TRIS-acetate buffer pH 7.0 and homogenized with the Potter homogenizer with 10 plunger strokes at 500 rpm, while cooling with ice, and the mixture was centrifuged for 60 minutes at 55,000 g at 4° C. The supernatant was decanted and the membrane sediment was adjusted to a protein concentration of 1 mg/ml with ice-cold 50 mmol/l TRIS-acetate buffer pH 7.0 and the mixture was homogenized again with 10 plunger strokes at 500 rpm and kept in suspension while stirring on a magnetic stirrer in an ice-bath. In each case 100 μl of this membrane homogenate per 1 ml batch were employed in the receptor binding test (0.1 mg protein/ml in the final batch).
In the binding test, 50 mmol/l TRIS-acetate buffer pH 7.0 were employed as the buffer and […] (^3H)-MDL 105.519 (Baron B. M. at al, J. Pharmacol. Exp. Ther., vol 279, pp. 62-68 (1996)) was employed as the radioactive ligand. The content of non-specific binding was determined in the presence of 1 mmol/l glycine.
In further batches, the compounds according to the invention were added in concentration series and the displacement of the radioactive ligand from its specific binding to the glycine binding site of the NMDA receptor channel was determined. […]

Series [2] concerns formalin-induced nociceptive reaction (licking and biting of the paw). The series is described as follows: Formalin test in mice, second (late) phase. The class given is in vivo. The note with it: male NMRI mice. As to the method: The studies for determination of the antinociceptive action of substituted 1,5-dihydropyrrol-2-one derivatives according to the invention were carried out in the formalin test in male albino mice (NMRI, 25-35 g, Iffa Credo, Belgium).
In the formalin test, a distinction is made between the first (early) phase (0-15 min after formalin injection) and the second (late) phase (15-60 min after formalin injection) (D. Dubuisson et al, Pain 4, 161-174 (1977)). The early phase represents a model for acute pain, as a direct reaction to the formalin injection, while the late phase is regarded as a model for persistent (chronic) pain (T. J. Coderre et al, Pain, vol. 52, pp. 259-285 (1993).
The compounds according to the invention were investigated in the second phase of the formalin test to obtain information on substance actions on chronic/inflammatory pain.
By a single subcutaneous formalin injection (20 μl, 1% aqueous solution) into the dorsal side of the right hind paw of freely mobile test animals, a nociceptive reaction was induced, which manifests itself in significant licking and biting of the paw affected.
For the investigation period in the second (late) phase of the formalin test, the nociceptive behaviour was recorded continuously by observing the animals. […] After injection of substances which have an antinociceptive action in the formalin test, the modes of behaviour described for the animals are reduced, and possibly even eliminated.
In a manner corresponding to the substance tests, in which the animals received an injection of the test substance before formalin, the vehicle, i.e. solvent (e.g. 0.9% NaCl solution), was injected into the control animals before the administration of formalin. The behaviour of the animals after administration of the substance (10 mice per substance dosage) was compared with a control group (10 mice).
On the basis of the quantification of the pain properties, the action of the substance in the formalin test was determined as a change from the control in per cent. The ED50 calculations were made by means of regression analysis. […]

`CNC1=C([N+](=O)[O-])C(=O)NC1=Cc1ccccc1` [Example 10, 5-Benzylidene-4-methylamino-3-nitro-1,5-dihydropyrrol-2-one] had a melting point of 238 °C. Further, the affinity in series [1] corresponds to a Ki of 3 µM.

`O=NC1=C(Nc2ccccc2)C(=Cc2ccccc2)NC1=O` [Example 4, 5-Benzylidene-3-nitroso-4-phenylamino-1,5-dihydropyrrol-2-one] gave a Ki in series [1] of 72 µM. This lies in the double-digit micromolar range.

In turn, `O=C1NC(=Cc2ccccc2)C(NCc2ccccc2)=C1[N+](=O)[O-]` [Example 9, 4-Benzylamino-5-benzylidene-3-nitro-1,5-dihydropyrrol-2-one] had a melting point of 218 °C. Also, the Ki in series [1] was determined as 5 µM.

In series [1], `O=C1NC(=Cc2ccccc2)C(Nc2ccccc2)=C1[N+](=O)[O-]` [Example 8, 5-Benzylidene-3-nitro-4-phenylamino-1,5-dihydropyrrol-2-one] yielded an inhibition constant (Ki) of 9 µM.

`NC1=C([N+](=O)[O-])C(=O)NC1=Cc1ccccc1` [Example 11, 4-Amino-5-benzylidene-3-nitro-1,5-dihydropyrrol-2-one] returned a melting point above 260 °C. The compound further came in with an inhibition constant Ki in series [1] of 6 µM.

On to `NC1=C(N=O)C(=O)NC1=Cc1ccccc1` [Example 6, 4-Amino-5-benzylidene-3-nitroso-1,5-dihydropyrrol-2-one], for which the affinity in series [1], expressed as Ki, was 70 µM.

Consider `CNC1=C(N=O)C(=O)NC1=Cc1ccccc1` [Example 5, 5-Benzylidene-4-methylamino-3-nitroso-1,5-dihydropyrrol-2-one], for which the Ki in series [1] came to 60 µM.

In the case of `COC1=C(N=O)C(=O)NC1=Cc1ccccc1` [Example 2, 5-Benzylidene-4-methoxy-3-nitroso-1,5-dihydropyrrol-2-one], in series [2], the “% change with respect to the control at 10 mg/kg” value (from here on “% change”) was determined as 36.3%.

On to `O=NC1=C(O)C(=Cc2ccccc2)NC1=O` [Example 1, 5-Benzylidene-4-hydroxy-3-nitroso-1,5-dihydro-pyrrol-2-one], for which, in series [2], the “% change” value turned out to be 63.9%.

In the case of `O=NC1=C(NCc2ccccc2)C(=Cc2ccccc2)NC1=O` [Example 3, 4-Benzylamino-5-benzylidene-3-nitroso-1,5-dihydropyrrol-2-one], affinity in series [1] was put at a Ki of 68 µM. Moreover, the “% change” value in series [2] is listed as 47.6%.
